Each structure is given as a SMILES string. pIC50: −log10 of the molar value.

One assay addresses T1, ORF2p core (Homo sapiens, UniProt O00370).
T1 construct: His6-MBP-3C-ORF2p (238-1061, ORFeus-Hs) in pET41; His6-MBP (3C protease site) (N, cleaved yes); made in house; host or cells: E. coli
Kind of assay: Gel-based L1 RT assay, ORF2p core, inhibition by NRTI triphosphates. The class given is biochemical. As to conditions: 100 nM dNTP mixture. The method, then: ORF2p core was preincubated with a template:primer containing a single site for the incorporation of a given nucleotide analogue. The primer/template sequence shown in the panel a illustrates the case of single incorporation of 3TC, with a single G for incorporation; the incoming template sequence for entecavir and carbovir has a single C, and for d4T a single A, each at position labeled “N”. Reactions were incubated for one minute at 37 °C with a 100 nM dNTP mixture and increasing concentrations of listed inhibitors. IC50 index, fold = IC50 (drug, µM) ÷ [dNTP] […] Fluorescein-labeled dNTPs (here, uracil-TP) are incorporated by ORF2p into a biotinylated primer, here shown against a poly(A) template. Detection is then achieved using FRET with a terbium cryptate labeled streptavidin, and the time-resolved technique and time-delayed emission from terbium cryptate reduces background from other fluorescent chemicals in the mix. In the presence of ORF2p RT inhibitors (RTIs), base incorporation is stopped and FRET signal is lost. […]
ORF2p reverse transcriptase activity assays […]
Gel-based RT activity assays consisted of pr e-incubating RTs with annealed DNA/RNA, DNA/DNA, or RNA/RNA 5’- end- radiolabeled or 5’-end-Cy5- o r FAM-labeled template:primer duplex or hybrid duplex and, where indicated, inhibitor in the presence of 0.1- 1 μ M dNTP or NTP mixture, 0.25 mM EDTA, 50 mM NaCl, and 25 mM Tris (pH 8) for 10 min at 37°C. Labeled nucleic acids were purchased from Dharmacon or IDT. Unless otherwise indicated, 15 μL reactions were initiated by the addition of 1.3 mM MgCl2, incubated for 10 min at 37 °C, and then stopped by the addition of 15 μL of formamide/EDTA (25 mM) mixture and incubated at 95 °C for 10 min. 3 μL reaction samples were subjected to denaturing 8 M urea 20% PAGE to resolve products followed by signal quantification (ImageQuant 5.2, GE Healthcare Bio- Sciences) through phosphorimaging (Amersham Typhoon 5, Cytivia). Scanned gel images are […]
minor products; original images are provided in an Extended Data file. […]

Assay [1] deals with L1 retrotransposition reporter in HeLa cells. Kind of assay: LINE-1 dual luciferase retrotransposition assay in HeLa cells. The class given is cell-based, human. The conditions noted are these: Homo sapiens; HeLa cells, stable dual luciferase L1 reporter, normalized to cell viability; n = 3 wells; read-out: IC50.
Assay [2] deals with interferon production in THP1 cells. Description: Interferon reporter assay in THP1 cells (secreted luciferase). The class given is cell-based, human. The conditions noted are these: 50 µM; THP1 cells, 1 µM decitabine. The method, then:
Culture Collection ( AT CC); THP1-Dual and THP1- Dual KO-TREX1 cells were from InvivoGen. All cell lines were maintained at 37 °C and 5% CO2 and validated and tested for mycoplasma. All plasmids and affinity reagents are described in Supplementary Tables 4-5 , respectively and available from Addgene at https://www.addgene.org/browse/article/28243724/. […]
Interferon reporter assay in THP1 cells
The type I interferon response was evaluated using THP1 -Dual and THP1-Dual KO-TREX1 cells (InvivoGen), which secrete a Lucia luciferase reporter gene under control of an interferon- responsive promoter. THP1-Dual KO-TREX1 cell were generated by stable biallelic knock-out of the TREX1 gene. Cell were treated with a dose titration of test compound in the presence of 1 µM 5- aza-2ʹ-deoxycytidine (decitabine, Sigma, #189825), which de- represses LINE-1121. Type 1 Interferon and cell viability were assessed after five days of treatment. QUANTI-LUC solution containing stabilizer was added to the cell supernatant and luminescence was measured on a p la t e reader, and cells were assessed for cell viability using CellTiter-Glo (Promega, #G9683) according to the manufacturer’s instructions.
LINE-1 dual luciferase retrotransposition assay
To assess the potency of inhibiting LINE-1 retrotransposon, a stable clonal dual luciferase L1 reporter cell line was generated and reported as described130,133 in the HeLa Tet-On 3G cell line (Takara, ). SB100x161 was used to integrate pRT006.2, a vector similar to pYX056 130 , which contains a bi-directional Tet-On promoter expressing both control Renilla luciferase and LINE-1 ORFeus-Hs Firefly luciferase antisense intron (AI) r epor t er 79,162. A single cell clone was selected with the highest doxycycline-induced luciferase signal vs baseline. Cells were mixed with compounds and induced for reporter expression with 500 ng/mL doxycycline (Sigma, #D9891) for 72 hours. Luminescence was measured using the Dual-Glo Luciferase Assay System (Promega, #E2940) following the manufacturer’s instructions, and the ratio of Firefly to Renilla Luciferase activity was used to measure […]
Telomerase activity assay
The human telomerase assay was performed with telomerase in MCF- 7 cell lysates using the Telo TAGGG Telomerase PCR ELISAplus kit (Roche). Test compounds (NTPs) were serially diluted in water, mixed with 0.2 µg of M CF- 7 lysate, and pre- incubated at room temperature for 15 minutes. Then the reaction was carried out for 30 minutes, amplified using PCR, and visualized colorimetrically per t he manufacturer’s instructions.
Cells were lysed in ice cold RIPA buffer containing 1x protease inhibitor tablet (Thermo), centrifuged for 10 minutes, and clarified lysates were quantified by BCA assay. […]
In general terms: Reporter assays use an easily measured gene product as a stand-in for the process of interest.

As a reminder, the pIC50 is the negative decadic logarithm of the IC50, by convention in mol/L. On to `Cc1cn([C@H]2C=C[C@@H](CO)O2)c(=O)[nH]c1=O` [d4T, stavudine], for which the “IC50 index, fold = IC50 (drug, µM) ÷ [dNTP] (natural counterpart, 0.1 µM)” value at ORF2p core was 4.1 fold. The pIC50 is 6.22 to 6.40 at ORF2p core (NTP forms of NRTIs, one minute at 37 °C) and 5.51 in assay [1]. For the same compound, the “baseline and decitabine-induced IFN production” value in assay [2] is “reduced”.

These data come from publication PMC10830420, “Structures, functions and adaptations of the human LINE-1 ORF2 protein” (Nature, 2023).
